For 16 molecules, IC50 results are on record in US8415378B2, “Isoxazol-3(2H)-one analogs as therapeutic agents” (AstraZeneca AB, priority 2009, dated 2013).

In the test the target is T1, human Glu-plasminogen (Homo sapiens, UniProt P00747).
T1 construct: human Glu-plasminogen; purchased Chromogenix, Italy
T1 sequence (P00747 20-810 limits assumed): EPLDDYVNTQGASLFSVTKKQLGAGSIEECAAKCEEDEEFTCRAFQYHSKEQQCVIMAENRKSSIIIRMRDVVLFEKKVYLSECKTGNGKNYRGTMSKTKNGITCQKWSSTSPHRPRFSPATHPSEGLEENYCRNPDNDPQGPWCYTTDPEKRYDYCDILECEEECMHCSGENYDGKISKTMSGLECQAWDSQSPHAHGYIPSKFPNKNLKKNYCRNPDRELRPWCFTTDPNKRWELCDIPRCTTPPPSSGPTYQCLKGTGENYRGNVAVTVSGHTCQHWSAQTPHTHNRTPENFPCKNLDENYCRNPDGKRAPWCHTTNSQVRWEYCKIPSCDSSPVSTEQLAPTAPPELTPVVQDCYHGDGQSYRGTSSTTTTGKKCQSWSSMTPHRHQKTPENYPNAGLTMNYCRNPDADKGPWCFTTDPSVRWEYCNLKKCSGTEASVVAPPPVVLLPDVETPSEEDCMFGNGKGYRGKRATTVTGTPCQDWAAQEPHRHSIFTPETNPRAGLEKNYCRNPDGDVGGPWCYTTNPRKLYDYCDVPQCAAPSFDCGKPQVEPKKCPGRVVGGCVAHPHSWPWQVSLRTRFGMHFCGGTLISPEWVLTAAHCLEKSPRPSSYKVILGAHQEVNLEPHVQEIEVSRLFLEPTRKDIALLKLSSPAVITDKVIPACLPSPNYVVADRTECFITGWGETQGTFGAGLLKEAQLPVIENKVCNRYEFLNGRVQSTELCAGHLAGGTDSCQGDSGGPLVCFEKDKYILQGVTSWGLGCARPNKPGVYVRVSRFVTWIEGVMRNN
Description: Clot-lysis buffer assay. The class given is biochemical. The protocol:
The assay method used for evaluating biological activity of the compounds according to the invention was Clot-lysis buffer assay.
Tested substance were added to the reaction mixture in 10% DMSO. Reaction was started by the addition of thrombin.
Measured according to the Clot-lysis buffer assay described above.
Molecule `O=c1cc([C@H]2CCN[C@@H](Cc3ccc(C(F)(F)F)c(F)c3)C2)o[nH]1` [Example 140, 5-((2R,4S)-2-(3-Fluoro-4-(trifluoromethyl)benzyl)piperidin-4-yl)isoxazol-3(2H)-one] showed an IC50 of 0.6 µM.
Take `O=c1cc([C@@H]2CCN[C@H](Cc3cc(F)cc(C(F)(F)F)c3)C2)o[nH]1` [Example 138, 5-((2S,4R)-2-(3-Fluoro-5-(trifluoromethyl)benzyl)piperidin-4-yl)isoxazol-3(2H)-one]: half-maximal inhibition (IC50) was put at 123 µM.
The result for `O=c1cc([C@@H]2CCN[C@H](c3ccc(C(F)(F)F)cc3)C2)o[nH]1` [Example 34, 5-((2S,4R)-2-(4-(Trifluoromethyl)phenyl)piperidin-4-yl)isoxazol-3(2H)-one] reads 150 µM; that for `O=c1cc([C@@H]2CCN[C@H](Cc3ccccc3C(F)(F)F)C2)o[nH]1` [Example 111, 5-((2S,4R)-2-(2-(trifluoromethyl)benzyl)piperidin-4-yl)isoxazol-3(2H)-one], 31.3 µM; that for `O=c1cc([C@@H]2CCN[C@H](COC3CCCCC3)C2)o[nH]1` [Example 85, 5-((2S,4R)-2-(Cyclohexyloxymethyl)piperidin-4-yl)isoxazol-3(2H)-one], 173 µM.
Next, `O=c1cc([C@H]2CCN[C@@H](Cc3cc(F)ccc3F)C2)o[nH]1` [Example 124, 5-((2R,4S)-2-(2,5-Difluorobenzyl)piperidin-4-yl)isoxazol-3(2H)-one]: 1.2 µM; `O=c1cc([C@@H]2CCN[C@@H](Cc3cc(F)c(F)c(F)c3)C2)o[nH]1` (relative stereo) [Example 145, 5-(Trans-2-(3,4,5-trifluorobenzyl)piperidin-4-yl)isoxazol-3(2H)-one]: 4.3 µM; `CS(=O)(=O)c1ccc(C2CC(c3cc(=O)[nH]o3)CCN2)cc1` (stereo not drawn) [Example 39, 5-((Trans-2-(4-(methylsulfonyl)phenyl)piperidin-4-yl)isoxazol-3(2H)-one]: 97.3 µM.
The result for `O=c1cc([C@H]2CCN[C@@H](Cc3ccc(F)c(F)c3)C2)o[nH]1` [Example 120, 5-((2R,4S)-2-(3,4-Difluorobenzyl)piperidin-4-yl)isoxazol-3(2H)-one] reads 0.89 µM.
Take `CC(C)(C[C@@H]1C[C@@H](c2cc(=O)[nH]o2)CCN1)c1ccccc1` [Example 18, 5-((2S,4S)-2-(2-Methyl-2-phenylpropyl)piperidin-4-yl)isoxazol-3(2H)-one]: inhibition was half-maximal at 1.6 µM (IC50).
In turn, `O=c1cc([C@@H]2CCN[C@@H](CC3CCC(F)(F)CC3)C2)o[nH]1` (relative stereo) [Example 91, 5-(Trans-2-((4,4-difluorocyclohexyl)methyl)piperidin-4-yl)isoxazol-3(2H)-one] had an IC50 of 5.9 µM.
The result for `O=c1cc([C@H]2CCN[C@@H](c3cc(Cl)cc(Cl)c3)C2)o[nH]1` [Example 55, 5-((2R,4S)-2-(3,5-Dichlorophenyl)piperidin-4-yl)isoxazol-3(2H)-one] reads 0.6 µM.
`O=c1cc([C@@H]2CCN[C@@H](c3ccc(Cl)cc3F)C2)o[nH]1` (relative stereo) [Example 46, 5-(Trans-2-(4-chloro-2-fluorophenyl)piperidin-4-yl)isoxazol-3(2H)-one] registered an IC50 of 90.7 µM.
The result for `O=c1cc([C@@H]2CCN[C@@H](COC3CCCCC3)C2)o[nH]1` (relative stereo) [Example 86, 5-(Trans-2-(cyclohexyloxymethyl)piperidin-4-yl)isoxazol-3(2H)-one] reads 15.6 µM.
The result for `CS(=O)(=O)c1ccc(C[C@H]2C[C@H](c3cc(=O)[nH]o3)CCN2)cc1` (relative stereo) [Example 119, 5-(Trans-2-(4-(methylsulfonyl)benzyl)piperidin-4-yl)isoxazol-3(2H)-one] reads 10.7 µM; that for `O=c1cc([C@@H]2CCN[C@H](c3ccc(Cl)cc3Cl)C2)o[nH]1` [Example 52, 5-((2S,4R)-2-(2,4-Dichlorophenyl)piperidin-4-yl)isoxazol-3(2H)-one], 1940 µM.
